Measurements from patent US8071778B2, “Substituted heterocyclic ethers and their use in CNS disorders” (Bristol-Myers Squibb Company, priority 2006, dated 2011).
Where two headings read alike, the source gives them in different places.

Assays:
hSERT = molecular target: T1, hSERT (Homo sapiens, UniProt P31645); assay: SERT radioligand binding assay
T1 construct: expressed in transfected cells; host or cells: HEK-293 cells (crude membranes)
Procedure: (§1) NK-1 Binding assay. Crude membrane suspensions were prepared for the NK1 and SERT radioligand binding assays from U373 cells or recombinant HEK-293 cells expressing hSERT, respectively. […] The medium is removed from the flasks and the cells rinsed with HBSS without Ca and without Mg. The cells are then incubated for 5-10 minutes in 10 mM Tris-Cl, pH 7.5, 5 mM EDTA before the cells are lifted with a combination of pipetting and scraping, as needed. To prepare membranes, the cell suspension is collected into centrifuge bottles and homogenized for 30 seconds with a Polytron homogenizer. The suspension is centrifuged for 30 min 32,000×g, 4° C., then the supernatant is decanted and the pellet resuspended and homogenized in 50 mM Tris-Cl, pH 7.5, 1 mM EDTA for 10 seconds. The suspension is then centrifuged again for 30 min 32,000×g, 4° C. The supernatant is decanted and the pellet resuspended in 50 mM Tris-Cl, pH 7.5, 1 mM EDTA and briefly homogenized. A Bradford assay (Bio-rad) is performed and the membrane preparation diluted to 2 mg/ml with 50 mM Tris-Cl, pH 7.5, 1 mM EDTA. Aliquots are prepared, and then frozen and stored at −80° C.
(§2) SERT radioligand binding assay. Compounds are dissolved in 100% DMSO at a concentration 100× the desired highest assay concentration, serially diluted 1:3 in 100% DMSO, and 0.4 ul/well of each solution is dispensed to a Nunc polypropylene, round bottom, 384 well plate. […] The contents of the assay plate are then transferred to a Millipore MultiscreenHTS GF/B filter plate which has been pretreated with 0.5% PEI for at least one hour. The plate is vacuum filtered and washed with 7 washes of 100 ul/well of 50 mM Tris-Cl, pH 7.5, 120 mM NaCl, 5 mM KCl chilled to 4° C. The filtration and washing is completed in less than 90 s. The plates are air-dried overnight, 12 ul/well of MicroScint scintillation fluid added, and the plates counted in a Trilux.
(§3) Data analysis. […] Each plate is run in triplicate, and the concentration response curve thus generated is fit using the four-parameter dose response equation, Y=Bottom+(Top-Bottom)/(1+10^((Log IC50−X)*HillSlope)) in order to determine the IC50 value for each compound. The radioligand concentration chosen for each assay corresponds to the Kd concentration determined through saturation binding analysis for each assay.

NK-1 = molecular target: T2, NK-1 (Homo sapiens, UniProt P25103); assay: NK1 radioligand binding assay; conditions: U373 membrane preparation, [125I]Substance P
T2 construct: endogenous in cells; host or cells: U373 cells (crude membranes)
T2 sequence (P25103 whole entry): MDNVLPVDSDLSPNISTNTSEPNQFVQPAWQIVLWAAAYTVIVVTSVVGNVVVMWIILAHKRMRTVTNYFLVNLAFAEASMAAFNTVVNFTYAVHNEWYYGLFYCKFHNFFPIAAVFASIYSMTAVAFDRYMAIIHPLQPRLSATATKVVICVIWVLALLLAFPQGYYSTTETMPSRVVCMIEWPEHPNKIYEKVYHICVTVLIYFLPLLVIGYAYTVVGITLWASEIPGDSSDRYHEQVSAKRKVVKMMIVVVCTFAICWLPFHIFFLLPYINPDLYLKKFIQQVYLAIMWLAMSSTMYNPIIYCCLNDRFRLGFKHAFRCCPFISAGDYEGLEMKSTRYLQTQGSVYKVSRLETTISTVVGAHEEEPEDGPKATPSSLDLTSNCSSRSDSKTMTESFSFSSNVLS
Procedure: as §1
as §2, with “NK1” for “SERT”, “0.6” for “0.4”, “20” for “50”, “0.5% (w/v) BSA” for “120 mM NaCl, 5 mM KCl”
as §3

[1] = HEK-hSERT membrane preparation, [125I]RTI-55, read-out: SERT IC50

T1 sequence (P31645 whole entry): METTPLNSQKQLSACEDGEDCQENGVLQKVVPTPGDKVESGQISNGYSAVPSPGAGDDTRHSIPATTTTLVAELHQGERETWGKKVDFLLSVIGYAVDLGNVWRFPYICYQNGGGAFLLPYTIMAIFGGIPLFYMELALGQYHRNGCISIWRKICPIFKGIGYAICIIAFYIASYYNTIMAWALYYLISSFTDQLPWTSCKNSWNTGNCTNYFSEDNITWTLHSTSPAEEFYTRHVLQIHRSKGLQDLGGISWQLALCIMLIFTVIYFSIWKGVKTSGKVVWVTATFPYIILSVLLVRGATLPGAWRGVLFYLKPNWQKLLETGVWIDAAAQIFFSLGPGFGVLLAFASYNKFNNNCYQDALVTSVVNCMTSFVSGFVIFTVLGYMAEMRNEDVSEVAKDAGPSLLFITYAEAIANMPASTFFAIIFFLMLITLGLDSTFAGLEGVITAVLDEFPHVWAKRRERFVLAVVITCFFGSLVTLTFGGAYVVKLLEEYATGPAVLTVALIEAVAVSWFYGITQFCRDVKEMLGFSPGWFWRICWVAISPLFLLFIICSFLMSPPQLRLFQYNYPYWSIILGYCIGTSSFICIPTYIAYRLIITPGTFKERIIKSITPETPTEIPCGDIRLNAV

Row | SMILES | IC50 (hSERT; [1]) [nM] | IC50 (NK-1) [nM] | IC50 (hSERT) [nM]
1 | c1ccc(C2(COCc3cncc(-c4ccco4)c3)CCNCC2)cc1 [Example 9] | 0.01 to 100 | > 300 | –
2 | COc1cc(OC)nc(COCC2(c3ccccc3)CCNCC2)n1 [Example 30, 4,6-dimethoxy-2(((4-phenylpiperidin-4-yl)methoxy)methyl)pyrimidine] | 100 to 300 | > 300 | –
3 | CC(OCC1(c2ccc(F)cc2)CCN(C)CC1)c1cc(C(F)(F)F)cc(Br)n1 (stereo not shown) [Example 33, 2-bromo-6-(1-((4-(4-fluorophenyl)-1-methylpiperidin-4-yl)methoxy)ethyl)-4-(trifluoromethyl)p] | – | 0.01 to 100 | 0.01 to 100
4 | CC(OCC1(c2ccccc2)CCN(C)CC1)c1cc(C(F)(F)F)cc(-c2ccc(F)cc2)n1 (stereo not shown) [Example 34, 2-(4-fluorophenyl)-6-(1-((1-methyl-4-phenylpiperidin-4-yl)methoxy)ethyl)-4-(trifluoromethyl)pyridine] | 0.01 to 100 | 0.01 to 100 | –
5 | CN1CCC(COCc2cc(C(F)(F)F)cc(Cl)n2)(c2cccnc2)CC1 [Example 35, 2-chloro-6-(((1-methyl-4-(pyridin-3-yl)piperidin-4-yl)methoxy)methyl)-4-(trifluoromethyl)pyridine] | – | > 300 | 0.01 to 100
6 | Cc1cc(C(F)(F)F)cc(COCC2(c3ccc(F)cc3)CCN(C)CC2)n1 [Example 36, 2-(((4-(4-fluorophenyl)-1-methylpiperidin-4-yl)methoxy)methyl)-6-methyl-4-(trifluoromethyl)pyridine] | – | 0.01 to 100 | 0.01 to 100
7 | CN1CCC(COCc2cc(C(F)(F)F)cc(-c3ncon3)n2)(c2ccc(F)cc2)CC1 [Example 37, 3-(6-(((4-(4-fluorophenyl)-1-methylpiperidin-4-yl)methoxy)methyl)-4-(trifluoromethyl)pyridin-2-yl)-1,2,4-oxadiazole] | – | 100 to 300 | 0.01 to 100
8 | COc1ccc(-c2cc(C(F)(F)F)cc(COCC3(c4ccccc4)CCN(C)CC3)n2)cc1 [Example 38, 2-(4-methoxyphenyl)-6-(((1-methyl-4-phenylpiperidin-4-yl)methoxy)methyl)-4-(trifluoromethyl)pyridine] | – | 0.01 to 100 | 0.01 to 100
9 | CN1CCC(COCc2cc(C(F)(F)F)cc(-c3ccncc3)n2)(c2ccccc2)CC1 [Example 39] | – | 0.01 to 100 | 0.01 to 100
10 | Cc1ccc(-c2cc(C(F)(F)F)cc(COCC3(c4ccccc4)CCN(C)CC3)n2)cc1 [Example 40] | – | 0.01 to 100 | 0.01 to 100
11 | CN1CCC(COCc2cc(C(F)(F)F)cc(-c3ccc(C#N)cc3)n2)(c2ccccc2)CC1 [Example 41] | – | 0.01 to 100 | 0.01 to 100
12 | CN1CCC(COCc2cc(C(F)(F)F)cc(-c3ccc(F)cc3)n2)(c2ccccc2)CC1 [Example 42] | – | 0.01 to 100 | 0.01 to 100
13 | CC(OCC1(c2ccccc2)CCN(C)CC1)c1cc(C(F)(F)F)cc(-c2ccc(C#N)cc2)n1 (stereo not shown) [Example 46] | – | 0.01 to 100 | 0.01 to 100
14 | CN1CCC(COCc2cc(C(F)(F)F)cc(-c3ccc(C#N)cc3)n2)(c2ccc(F)cc2)CC1 [Example 47] | – | 0.01 to 100 | 0.01 to 100
15 | CN1CCC(COCc2cc(N3CCCC3)cc(C(F)(F)F)n2)(c2ccccc2)CC1 [Example 48] | – | 0.01 to 100 | 0.01 to 100
16 | CN1CCC(COCc2cncc(-c3ccco3)c2)(c2ccccc2)CC1 [Example 49] | – | > 300 | 0.01 to 100
17 | CN1CCC(COCc2ccc(-c3ccc(Cl)cc3)nc2)(c2ccccc2)CC1 [Example 50] | – | > 300 | 0.01 to 100
18 | CN1CCC(COCc2cc(C(F)(F)F)cc(-c3ccc(C#N)cc3)n2)(c2ccccc2F)CC1 [Example 54] | – | 0.01 to 100 | 100 to 300
19 | CN1CCC(COCc2cc(C(F)(F)F)cc(N3CCCC3)n2)(c2ccccc2F)CC1 [Example 55] | 0.01 to 100 | 0.01 to 100 | –
20 | CN1CCC(COCc2cc(C(F)(F)F)cc(N3CCCC3)n2)(c2ccc(F)cc2)CC1 [Example 59] | 0.01 to 100 | 0.01 to 100 | –
21 | Cc1cc(-c2cc(C(F)(F)F)cc(COCC3(c4ccccc4)CCN(C)CC3)n2)ccc1C#N [Example 60] | – | 0.01 to 100 | 0.01 to 100

Now from value to compound, other results behind:

Row | IC50 (hSERT; [1]) [nM] | IC50 (NK-1) [nM] | SMILES | IC50 (hSERT) [nM]
22 | 0.01 to 100 | 0.01 to 100 | COc1ccc(-c2cc(C(F)(F)F)cc(COCC3(c4ccccc4)CCNCC3)n2)cc1 [Example 1, 2-(4-methoxyphenyl)-6-(((4-phenylpiperidin-4-yl)methoxy)methyl)-4-(trifluoromethyl)pyridine] | –
23 | 0.01 to 100 | 0.01 to 100 | FC(F)(F)c1cc(COCC2(c3ccccc3)CCNCC2)nc(-c2ccncc2)c1 [Example 2] | –
24 | 100 to 300 | > 300 | FC(F)(F)c1ccc(-c2cc(C(F)(F)F)cc(COCC3(c4ccccc4)CCNCC3)n2)cc1 [Example 3] | –
25 | 0.01 to 100 | 0.01 to 100 | Cc1ccc(-c2cc(C(F)(F)F)cc(COCC3(c4ccccc4)CCNCC3)n2)cc1 [Example 4] | –
26 | 0.01 to 100 | 0.01 to 100 | Fc1ccc(-c2cc(C(F)(F)F)cc(COCC3(c4ccccc4)CCNCC3)n2)cc1 [Example 5] | –
27 | 0.01 to 100 | 0.01 to 100 | N#Cc1ccc(-c2cc(C(F)(F)F)cc(COCC3(c4ccccc4)CCNCC3)n2)cc1 [Example 6] | –
28 | 0.01 to 100 | 0.01 to 100 | N#Cc1ccc(-c2cc(C(F)(F)F)cc(COCC3(c4ccc(F)cc4)CCNCC3)n2)cc1 [Example 7] | –
29 | 0.01 to 100 | 0.01 to 100 | CC(OCC1(c2ccccc2)CCNCC1)c1cc(C(F)(F)F)cc(-c2ccc(C#N)cc2)n1 (stereo not shown) [Example 8] | –
30 | 0.01 to 100 | > 300 | Clc1ccc(-c2ccc(COCC3(c4ccccc4)CCNCC3)cn2)cc1 [Example 10] | –
31 | 0.01 to 100 | 0.01 to 100 | Cc1cc(-c2cc(C(F)(F)F)cc(COCC3(c4ccc(F)cc4)CCNCC3)n2)ccc1C#N [Example 11] | –
32 | 0.01 to 100 | 0.01 to 100 | Fc1ccc(C2(COCc3cc(C(F)(F)F)cc(-c4ccc(F)cc4F)n3)CCNCC2)cc1 [Example 12] | –
33 | 100 to 300 | 0.01 to 100 | FC(F)(F)c1cc(COCC2(c3ccccc3)CCNCC2)nc(N2CCOCC2)c1 [Example 15] | –
34 | 0.01 to 100 | 0.01 to 100 | N#CC1CCN(c2cc(C(F)(F)F)cc(COCC3(c4ccc(F)cc4)CCNCC3)n2)CC1 [Example 17] | –
35 | 0.01 to 100 | 0.01 to 100 | N#CC1CCN(c2cc(C(F)(F)F)cc(COCC3(c4ccc(F)cc4)CCNCC3)n2)C1 (stereo not shown) [Example 18] | –
36 | 0.01 to 100 | 0.01 to 100 | Fc1ccc(C2(COCc3cc(C(F)(F)F)cc(N4CC=CC4)n3)CCNCC2)cc1 [Example 19] | –
37 | 0.01 to 100 | 0.01 to 100 | Fc1ccc(C2(COCc3cc(C(F)(F)F)cc(N4CCCC4)n3)CCNCC2)cc1 [Example 20] | –
38 | 0.01 to 100 | 0.01 to 100 | CCC(CC)Nc1cc(C(F)(F)F)cc(COCC2(c3ccc(F)cc3)CCNCC2)n1 [Example 21] | –
39 | 0.01 to 100 | 0.01 to 100 | CCN(CC)c1cc(C(F)(F)F)cc(COCC2(c3ccc(F)cc3)CCNCC2)n1 [Example 22] | –
40 | 0.01 to 100 | 0.01 to 100 | CC(OCC1(c2ccccc2)CCNCC1)c1cc(C(F)(F)F)cc(N2CCOCC2)n1 (stereo not shown) [Example 23] | –
41 | 0.01 to 100 | > 300 | N#Cc1ccc(-c2cncc(COCC3(c4ccccc4)CCNCC3)c2)cc1 [Example 25, 4-(5-(((4-phenylpiperidin-4-yl)methoxy)methyl)pyridine-3yl)benzonitrile] | –
42 | 0.01 to 100 | 0.01 to 100 | CC(OCC1(c2ccccc2)CCNCC1)c1cc(C(F)(F)F)cc(C(F)(F)F)n1 (stereo not shown) [Example 27, 2-(1-((4-phenylpiperidin-4-yl)methoxy)ethyl)-4,6-bis(trifluoromethyl)pyridine] | –
43 | 0.01 to 100 | > 300 | N#Cc1cc(C(F)(F)F)cc(COCC2(c3ccccc3)CCNCC2)n1 [Example 31] | –
44 | 0.01 to 100 | 0.01 to 100 | CC(OCC1(c2ccccc2)CCNCC1)c1cc(C(F)(F)F)cc(C#N)n1 (stereo not shown) [Example 32] | –
